According to US20250041334A1, “Compositions for Virulence Suppression” (Solventum Intellectual Properties Company, priority 2021, published 2025):

Legend:
[1] = system: accessory gene regulator (agr) system, agr P2-P3 GFP reporter pJY202; test: Agr Reporter (Staph Aureus) Assay; type: cell-based, Staphylococcus aureus MN8; conditions: S. aureus MN8 (pJY202), 1X TY media, RFU normalized to OD600, 24 hours, n=3
Description: Description: The expression of many virulence factors in Staphylococcus aureus is controlled by the quorum sensing accessory gene regulator (agr) system. The plasmid pJY202 is an agr reporter that contains a fusion of the agr P2-P3 region with a gene coding for GFP.
(§1) An S. aureus MN8 (pJY202) colony was picked from a TSA plate and grown overnight in TSB media with 5 µg/mL erythromycin with shaking at 37° C. The culture was centrifuged at 3000×g for 5 minutes and the supernatant was removed. The bacteria were washed once with water.
(§2) Individual growth media solutions for the assay were freshly prepared by adding materials to 1X TY media with 5 μg/mL erythromycin and then adjusting the pH of each solution to about pH 6.0 (using 1M NaOH or 1M HCl). All the growth media solutions were sterile filtered when possible using a 0.2 micrometer filter.
(§3) An aliquot of each growth media solution (200 microliters) was added to the well of a 96-well black, clear-bottom plate. Samples were prepared in triplicate (n=3). The bacteria samples were resuspended in 5 mL of 1X TY media. […] Bacterial growth was measured at 600 nm (OD600) and Agr activity was measured as fluorescent intensity at 485 nm excitation/528 nm emission. Agr activity (relative fluorescence units, RFU) was normalized to bacterial growth (OD600) for each well. The Agr activity was measured at the 24 hour time point.

S. aureus MN8 (pJY202) = test: Bacterial growth (OD600) in the Agr reporter assay; type: cell-based, Staphylococcus aureus MN8; conditions: 1X TY media, pH about 6.0, 24 hours
Description: as §1, §2
as §3, with “media. A 3 microliter sample of resuspended S. aureus MN8 (pJY202) was added to each well.” for “media.”

O=P([O-])(O)O.[K+] [50 mM KH2PO4, KH2PO4]
Agr Expression at 24 hours [1]: 86 +/− 6 | Growth OD600 at 24 hours (S. aureus MN8 (pJY202)): 1.02
